Experimental data taken from PubChem BioAssay (NCI).
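At the GI50, growth is halved. TGI denotes the concentration required for complete inhibition of growth.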

Columns and labels:
Experiment in all cases: NCI tumour cell line growth inhibition, 384-well format
HOP-92 NSCLC = test system: HOP-92 NSCLC
HOP-62 NSCLC = test system: HOP-62 NSCLC
SK-MEL-28 melanoma = test system: SK-MEL-28 melanoma
MCF7 breast = test system: MCF7 breast
HT29 colon = test system: HT29 colon
NCI-H226 lung = test system: NCI-H226 lung
KM12 colon = test system: KM12 colon
DU-145 prostate = test system: DU-145 prostate
CCRF-CEM leukemia = test system: CCRF-CEM leukemia
MDA-MB-468 breast = test system: MDA-MB-468 breast
K-562 leukemia = test system: K-562 leukemia
SF-295 CNS = test system: SF-295 CNS
COLO 205 colon = test system: COLO 205 colon

## CCc1c(C#N)c(SC(C(N)=O)c2ccccc2)nc(N2CCC(N)CC2)c1C#N (stereo unspecified)
HOP-92 NSCLC
  GI50: 13 µM
  TGI: 25.7 µM
HOP-62 NSCLC
  GI50: 4.92 µM
  TGI: 16.3 µM
SK-MEL-28 melanoma
  GI50: 7.46 µM
  TGI: 20.1 µM
MCF7 breast
  GI50: 5.36 µM
  TGI: 17.7 µM
HT29 colon
  GI50: 16.9 µM
  TGI: 30.7 µM
NCI-H226 lung
  GI50: 12.4 µM
  TGI: 25 µM
KM12 colon
  GI50: 11.2 µM
  TGI: 23.4 µM
DU-145 prostate
  GI50: 3.33 µM
  TGI: 12.4 µM
CCRF-CEM leukemia
  GI50: 6.52 µM
  TGI: 19 µM
MDA-MB-468 breast
  GI50: 8.13 µM
  TGI: 20.4 µM
K-562 leukemia
  GI50: 5.63 µM
  TGI: 18.3 µM
SF-295 CNS
  GI50: 13.2 µM
  TGI: 26 µM
COLO 205 colon
  GI50: 3.42 µM
  TGI: 17.4 µM
